# Experiments:
# [1] = system: Staphylococcus aureus; test: Antibacterial activity against Staphylococcus aureus ATCC 29213 incubated for 16 to 18 hrs by broth dilution method; type: functional; settings: time 16-18 hrs
# [2] = system: Staphylococcus aureus; test: Antibacterial activity against methicillin resistant Staphylococcus aureus N315 incubated for 16 to 18 hrs by broth dilution method; type: functional; settings: time 16-18 hrs
# [3] = system: Staphylococcus aureus; test: Antibacterial activity against methicillin resistant Staphylococcus aureus M11 incubated for 16 to 18 hrs by broth dilution method; type: functional; settings: time 16-18 hrs
# [4] = system: Staphylococcus aureus; test: Antibacterial activity against methicillin resistant Staphylococcus aureus M12 incubated for 16 to 18 hrs by broth dilution method; type: functional; settings: time 16-18 hrs
# [5] = system: Staphylococcus aureus; test: Antibacterial activity against methicillin resistant Staphylococcus aureus M13 incubated for 16 to 18 hrs by broth dilution method; type: functional; settings: time 16-18 hrs
# [6] = system: Staphylococcus aureus; test: Antibacterial activity against methicillin resistant Staphylococcus aureus M14 incubated for 16 to 18 hrs by broth dilution method; type: functional; settings: time 16-18 hrs
# [7] = system: Staphylococcus aureus; test: Antibacterial activity against methicillin resistant Staphylococcus aureus M16 incubated for 16 to 18 hrs by broth dilution method; type: functional; settings: time 16-18 hrs
# [8] = system: Staphylococcus aureus; test: Antibacterial activity against methicillin resistant Staphylococcus aureus M17 incubated for 16 to 18 hrs by broth dilution method; type: functional; settings: time 16-18 hrs
# [9] = system: Staphylococcus aureus; test: Antibacterial activity against methicillin resistant Staphylococcus aureus M20 incubated for 16 to 18 hrs by broth dilution method; type: functional; settings: time 16-18 hrs
# [10] = system: Staphylococcus aureus; test: Antibacterial activity against methicillin resistant Staphylococcus aureus M21 incubated for 16 to 18 hrs by broth dilution method; type: functional; settings: time 16-18 hrs
# [11] = system: Staphylococcus aureus; test: Antibacterial activity against methicillin resistant Staphylococcus aureus M22 incubated for 16 to 18 hrs by broth dilution method; type: functional; settings: time 16-18 hrs
# [12] = system: Staphylococcus aureus; test: Antibacterial activity against methicillin resistant Staphylococcus aureus M23 incubated for 16 to 18 hrs by broth dilution method; type: functional; settings: time 16-18 hrs
# [13] = system: Escherichia coli; test: Antibacterial activity against Escherichia coli ATCC 25922 incubated for 16 to 18 hrs by broth dilution method; type: functional; settings: time 16-18 hrs
# [14] = Hemolytic activity in sheep RBC incubated for 1 hr; type: toxicity, cell-based, Ovis aries, Erythrocyte; settings: sheep red blood cells (erythrocytes)
# [15] = Selectivity index, ratio of HC50 for sheep RBC to MIC for Staphylococcus aureus ATCC 29213; type: toxicity; settings: sheep red blood cells, read-out: Selectivity Index
Compound,MIC [1] [µg/mL],MIC [2] [µg/mL],MIC [3] [µg/mL],MIC [4] [µg/mL],MIC [5] [µg/mL],MIC [6] [µg/mL],MIC [7] [µg/mL],MIC [8] [µg/mL],MIC [9] [µg/mL],MIC [10] [µg/mL],MIC [11] [µg/mL],MIC [12] [µg/mL],MIC [13] [µg/mL],HC50 at 1 h [14] [µg/mL],selectivity ratio [15]
C=CCc1cc(-c2ccc(OCCC[N+](C)(C)CC(=O)NCCCC)c(CC=C)c2)c2oc(-c3ccc(F)cc3)nc2c1.[Br-],32,16,16,16,8,8,8,8,8,8,8,8,> 128,> 320,> 10
C=CCc1cc(-c2ccc(OCCC[N+](C)(C)CC(=O)NCCCC)c(CC=C)c2)c2oc(-c3ccc(Cl)cc3)nc2c1.[Br-],16,8,4,4,4,8,4,4,8,4,8,4,> 128,> 640,> 40
C=CCc1cc(-c2ccc(OCCC[N+](C)(C)CC(=O)NCCCC)c(CC=C)c2)c2oc(-c3ccc(Br)cc3Br)nc2c1.[Br-],128,64,32,16,16,32,16,64,16,16,32,32,> 128,170,1.3
C=CCc1cc(-c2ccc(OCCC[N+](C)(C)CC(=O)NCCCC)c(CC=C)c2)c2oc(-c3ccc(C(F)(F)F)cc3)nc2c1.[Br-],128,128,8,16,8,16,8,32,8,8,32,8,128,59.5,0.5
C=CCc1cc(-c2ccc(OCCC[N+](C)(C)CC(=O)NCCCC)c(CC=C)c2)c2oc(-c3ccc(Cl)c(Cl)c3)nc2c1.[Br-],128,128,64,32,16,32,32,128,32,32,64,64,> 128,87.6,0.7
C=CCc1cc(-c2ccc(OCCC[N+](C)(C)CC(=O)NCCCC)c(CC=C)c2)c2oc(-c3cc(Br)cc(Br)c3)nc2c1.[Br-],128,128,128,> 128,> 128,128,128,128,> 128,64,128,128,128,205,1.6
C=CCc1cc(-c2ccc(OCCC[N+](C)(C)CC(=O)NCCCC)c(CC=C)c2)c2oc(-c3ccc(Cl)cc3Cl)nc2c1.[Br-],32,32,64,16,16,8,8,8,8,8,16,8,> 128,85.9,2.7
C=CCc1cc(-c2ccc(OCCC[N+](C)(C)CC(=O)NCCCC)c(CC=C)c2)c2oc(-c3ccc(Cl)c(Br)c3)nc2c1.[Br-],128,128,> 128,128,32,64,64,128,128,128,128,128,> 128,> 320,> 2.5
C=CCc1cc(-c2ccc(OCCC[N+](C)(C)CC(=O)NCCCC)c(CC=C)c2)c2oc(-c3ccc(Cl)c(F)c3)nc2c1.[Br-],64,8,8,16,8,4,8,16,8,8,8,8,128,81,1.3
C=CCc1cc(-c2ccc(OCCC[N+](C)(C)CC(=O)NCCCC)c(CC=C)c2)c2oc(-c3ccc(OC)cc3)nc2c1.[Br-],8,4,2,4,4,2,2,4,2,2,2,2,> 128,320,> 40
C=CCc1cc(-c2ccc(OCCC[N+](C)(C)CC(=O)NCCCC)c(CC=C)c2)c2oc(-c3ccccc3)nc2c1.[Br-],8,16,2,2,2,4,4,1,2,2,2,2,> 128,> 160,> 20
C=CCc1cc(-c2ccc(OCCC[N+](C)(C)CC(=O)NCCCC)c(CC=C)c2)c2oc(-c3ccc(F)c(Cl)c3)nc2c1.[Br-],64,16,8,8,8,4,8,32,8,8,16,8,> 128,> 320,> 5
C=CCc1cc(-c2ccc(OCCC[N+](C)(C)CC(=O)NCCCC)c(CC=C)c2)c2oc(-c3cccc(Br)c3)nc2c1.[Br-],32,64,8,8,8,8,8,8,8,8,8,8,> 128,> 320,> 10
C=CCc1cc(-c2ccc(OCCC[N+](C)(C)CC(=O)NCCCC)c(CC=C)c2)c2oc(-c3ccc(F)c(F)c3)nc2c1.[Br-],8,32,8,8,4,4,4,4,4,4,16,4,> 128,222,27.7
C=CCc1cc(-c2ccc(OCCC[N+](C)(C)CC(=O)NCCCC)c(CC=C)c2)c2oc(-c3ccc(Br)cc3)nc2c1.[Br-],64,64,8,16,8,8,8,16,8,8,16,8,128,> 320,> 5
C=CCc1cc(-c2ccc(OCCC[N+](C)(C)CC(=O)NCCCC)c(CC=C)c2)c2oc(-c3cc(Br)ccc3F)nc2c1.[Br-],64,32,8,8,4,4,8,4,4,4,8,8,128,> 320,> 5
C=CCc1cc(-c2ccc(OCCC[N+](C)(C)CC(=O)NCCCC)c(CC=C)c2)c2oc(-c3ccccc3F)nc2c1.[Br-],4,8,4,4,4,4,4,4,4,8,4,4,128,110,27.4
C=CCc1cc(-c2ccc(OCCC[N+](C)(C)CC(=O)NCCCC)c(CC=C)c2)c2oc(-c3ccccc3Cl)nc2c1.[Br-],16,64,128,64,32,64,32,128,64,128,32,32,128,> 640,> 40

# From ChEMBL document CHEMBL5608246, “Membrane-Targeting Amphiphilic Honokiol Derivatives Containing an Oxazole Moiety as Potential Antibacterials against Methicillin-Resistant Staphylococcus aureus” (J Med Chem, 2024)
